Results on four molecules are retold here after ChEMBL document CHEMBL4219183, “Novel purine benzimidazoles as antimicrobial agents by regulating ROS generation and targeting clinically resistant Staphylococcus aureus DNA groove” (Bioorg Med Chem Lett, 2018).

By MIC is commonly meant the lowest concentration that inhibits growth of the organism. Low values mean a more susceptible organism, high ones a less susceptible organism. Usually MIC80 stands for an inhibitory concentration at the 80% level, which refers to growth in some studies and to a panel of isolates in others. A high value points to weaker potency.

Values after ≈ are worked out from the molar mass of the structure shown.

In the first test the test system is Staphylococcus aureus. Nature of the test: Antibacterial activity against Staphylococcus aureus ATCC 25923 after 24 hrs by two fold serial dilution method. Type of test: functional. The note with it: ATCC 25923, 24 h.
The molecule `Fc1ccccc1Cn1c(Cn2cnc3c(N4CCOCC4)ncnc32)nc2ccccc21` yielded an MIC of 128 µg/mL (≈ 289 µM).

Regarding `C=CCn1c(Cn2cnc3c(N4CCOCC4)ncnc32)nc2ccccc21`, the minimal inhibitory concentration (MIC) was found to be 256 µg/mL (≈ 682 µM).

The molecule `CCn1cc(C(=O)O)c(=O)c2cc(F)c(N3CCNCC3)cc21` [NORFLOXACIN] had a minimum inhibitory concentration (MIC) of 32 µg/mL (≈ 100 µM).

For a further test, the system named is Pseudomonas aeruginosa. In words: Antibacterial activity against Pseudomonas aeruginosa after 24 hrs by two fold serial dilution method. It counts as functional.
Details: not given
`Fc1ccccc1Cn1c(Cn2cnc3c(N4CCOCC4)ncnc32)nc2ccccc21` gave an MIC of 32 µg/mL (≈ 72.2 µM).

In the case of `C=CCn1c(Cn2cnc3c(N4CCOCC4)ncnc32)nc2ccccc21`, inhibition of growth (MIC) required 256 µg/mL (≈ 682 µM).

In turn, `CCn1cc(C(=O)O)c(=O)c2cc(F)c(N3CCNCC3)cc21` [NORFLOXACIN] yielded a minimum inhibitory concentration (MIC) of 4 µg/mL (≈ 12.5 µM).

Another test relates to Staphylococcus aureus. Nature of the test: Antibacterial activity against methicillin-resistant Staphylococcus aureus N315 after 24 hrs by two fold serial dilution method. Type of test: functional. The settings on record: N315, 24 h.
As to `Fc1ccccc1Cn1c(Cn2cnc3c(N4CCOCC4)ncnc32)nc2ccccc21`, 256 µg/mL (≈ 577 µM) was the least that counted as inhibitory (MIC).

`C=CCn1c(Cn2cnc3c(N4CCOCC4)ncnc32)nc2ccccc21` returned an MIC of 512 µg/mL (≈ 1360 µM).

For `CCn1cc(C(=O)O)c(=O)c2cc(F)c(N3CCNCC3)cc21` [NORFLOXACIN], the MIC is over 512 µg/mL.

The subject of a further test is Candida albicans. In words: Antifungal activity against Candida albicans ATCC 90023 after 24 hrs by two fold serial dilution method. Type of test: functional. The settings on record: ATCC 90023, 24 h.
Molecule `Fc1ccccc1Cn1c(Cn2cnc3c(N4CCOCC4)ncnc32)nc2ccccc21` displayed an MIC80 of 64 µg/mL (≈ 144 µM).

`C=CCn1c(Cn2cnc3c(N4CCOCC4)ncnc32)nc2ccccc21`: the MIC80 turned out to be 128 µg/mL (≈ 341 µM).

On to `OC(Cn1cncn1)(Cn1cncn1)c1ccc(F)cc1F` [FLUCONAZOLE], for which the MIC80 turned out to be 1 µg/mL (≈ 3.27 µM).

A further test concerns Candida parapsilosis. In words: Antifungal activity against Candida parapsilosis ATCC 22019 after 24 hrs by two fold serial dilution method. The settings on record: ATCC 22019, 24 h. It counts as functional.
`Fc1ccccc1Cn1c(Cn2cnc3c(N4CCOCC4)ncnc32)nc2ccccc21`: the MIC80 turned out to be 512 µg/mL (≈ 1150 µM).

The molecule `C=CCn1c(Cn2cnc3c(N4CCOCC4)ncnc32)nc2ccccc21` yielded an MIC80 of 32 µg/mL (≈ 85.2 µM).

In the case of `OC(Cn1cncn1)(Cn1cncn1)c1ccc(F)cc1F` [FLUCONAZOLE], the MIC80 turned out to be 2 µg/mL (≈ 6.53 µM).

The next test relates to Aspergillus fumigatus. In words: Antifungal activity against Aspergillus fumigatus after 24 hrs by two fold serial dilution method. Type of test: functional.
Details: not given
The molecule `Fc1ccccc1Cn1c(Cn2cnc3c(N4CCOCC4)ncnc32)nc2ccccc21` had an MIC80 of 64 µg/mL (≈ 144 µM).

In turn, `C=CCn1c(Cn2cnc3c(N4CCOCC4)ncnc32)nc2ccccc21` returned an MIC80 of 128 µg/mL (≈ 341 µM).

Consider `OC(Cn1cncn1)(Cn1cncn1)c1ccc(F)cc1F` [FLUCONAZOLE], for which the MIC80 is 256 µg/mL (≈ 836 µM).

Another test relates to Escherichia coli. In words: Antibacterial activity against Escherichia coli ATCC 25922 after 24 hrs by two fold serial dilution method. It counts as functional. The settings on record: ATCC 25922, 24 h.
Consider `Fc1ccccc1Cn1c(Cn2cnc3c(N4CCOCC4)ncnc32)nc2ccccc21`, for which the MIC was determined as 256 µg/mL (≈ 577 µM).

Molecule `C=CCn1c(Cn2cnc3c(N4CCOCC4)ncnc32)nc2ccccc21` yielded an MIC of 256 µg/mL (≈ 682 µM).

Regarding `CCn1cc(C(=O)O)c(=O)c2cc(F)c(N3CCNCC3)cc21` [NORFLOXACIN], the MIC came to 1 µg/mL (≈ 3.13 µM).

The test system of another test is Escherichia coli. In words: Antibacterial activity against Escherichia coli after 24 hrs by two fold serial dilution method. Type of test: functional.
Details: not given
In turn, `Fc1ccccc1Cn1c(Cn2cnc3c(N4CCOCC4)ncnc32)nc2ccccc21` showed an MIC of 64 µg/mL (≈ 144 µM).

For `C=CCn1c(Cn2cnc3c(N4CCOCC4)ncnc32)nc2ccccc21`, the MIC was 256 µg/mL (≈ 682 µM).

Molecule `CCn1cc(C(=O)O)c(=O)c2cc(F)c(N3CCNCC3)cc21` [NORFLOXACIN] had an MIC of 512 µg/mL (≈ 1600 µM).

In the next test the test system is Staphylococcus aureus. Nature of the test: Antibacterial activity against Staphylococcus aureus after 24 hrs by two fold serial dilution method.
Details: not given
It counts as functional.
For the molecule `Fc1ccccc1Cn1c(Cn2cnc3c(N4CCOCC4)ncnc32)nc2ccccc21`, the minimum inhibitory concentration (MIC) was found to be 256 µg/mL (≈ 577 µM).

With `C=CCn1c(Cn2cnc3c(N4CCOCC4)ncnc32)nc2ccccc21`, it took 256 µg/mL (≈ 682 µM) to inhibit growth (MIC).

On to `CCn1cc(C(=O)O)c(=O)c2cc(F)c(N3CCNCC3)cc21` [NORFLOXACIN], for which the MIC amounted to 64 µg/mL (≈ 200 µM).

The test system of the next test is Pseudomonas aeruginosa. Nature of the test: Antibacterial activity against Pseudomonas aeruginosa ATCC 27853 after 24 hrs by two fold serial dilution method. It counts as functional. The note with it: ATCC 27853, 24 h.
Regarding `Fc1ccccc1Cn1c(Cn2cnc3c(N4CCOCC4)ncnc32)nc2ccccc21`, the lowest concentration to inhibit growth (MIC) was 32 µg/mL (≈ 72.2 µM).

In the case of `C=CCn1c(Cn2cnc3c(N4CCOCC4)ncnc32)nc2ccccc21`, the MIC stood at 128 µg/mL (≈ 341 µM).

The molecule `CCn1cc(C(=O)O)c(=O)c2cc(F)c(N3CCNCC3)cc21` [NORFLOXACIN] showed an MIC of 512 µg/mL (≈ 1600 µM).

The test system of the next test is Staphylococcus aureus. Nature of the test: Antibacterial activity against Staphylococcus aureus ATCC 29213 after 24 hrs by two fold serial dilution method. The note with it: ATCC 29213, 24 h. Type of test: functional.
Consider `Fc1ccccc1Cn1c(Cn2cnc3c(N4CCOCC4)ncnc32)nc2ccccc21`, for which it took 16 µg/mL (≈ 36.1 µM) to inhibit growth (MIC).

Molecule `C=CCn1c(Cn2cnc3c(N4CCOCC4)ncnc32)nc2ccccc21` gave a minimum inhibitory concentration (MIC) of 128 µg/mL (≈ 341 µM).

Regarding `CCn1cc(C(=O)O)c(=O)c2cc(F)c(N3CCNCC3)cc21` [NORFLOXACIN], the MIC turned out to be 8 µg/mL (≈ 25.1 µM).

The test system of the next test is Klebsiella pneumoniae. Nature of the test: Antibacterial activity against Klebsiella pneumoniae after 24 hrs by two fold serial dilution method. It counts as functional.
Details: not given
With `Fc1ccccc1Cn1c(Cn2cnc3c(N4CCOCC4)ncnc32)nc2ccccc21`, the minimum inhibitory concentration (MIC) amounted to 64 µg/mL (≈ 144 µM).

Molecule `C=CCn1c(Cn2cnc3c(N4CCOCC4)ncnc32)nc2ccccc21` returned an MIC of 128 µg/mL (≈ 341 µM).

`CCn1cc(C(=O)O)c(=O)c2cc(F)c(N3CCNCC3)cc21` [NORFLOXACIN] returned an MIC of over 512 µg/mL.

The next test has as its system Enterococcus faecalis. Nature of the test: Antibacterial activity against Enterococcus faecalis after 24 hrs by two fold serial dilution method. Type of test: functional.
Details: not given
Turning to `Fc1ccccc1Cn1c(Cn2cnc3c(N4CCOCC4)ncnc32)nc2ccccc21`, it took 64 µg/mL (≈ 144 µM) to inhibit growth (MIC).

`C=CCn1c(Cn2cnc3c(N4CCOCC4)ncnc32)nc2ccccc21` returned an MIC of 128 µg/mL (≈ 341 µM).

In the case of `CCn1cc(C(=O)O)c(=O)c2cc(F)c(N3CCNCC3)cc21` [NORFLOXACIN], 256 µg/mL (≈ 802 µM) was the least that counted as inhibitory (MIC).

A further test deals with Candida tropicalis. In words: Antifungal activity against Candida tropicalis after 24 hrs by two fold serial dilution method.
Details: not given
Type of test: functional.
The molecule `Fc1ccccc1Cn1c(Cn2cnc3c(N4CCOCC4)ncnc32)nc2ccccc21` yielded an MIC80 of 256 µg/mL (≈ 577 µM).

The molecule `C=CCn1c(Cn2cnc3c(N4CCOCC4)ncnc32)nc2ccccc21` had an MIC80 of 256 µg/mL (≈ 682 µM).

`OC(Cn1cncn1)(Cn1cncn1)c1ccc(F)cc1F` [FLUCONAZOLE] registered an MIC80 of 256 µg/mL (≈ 836 µM).

The test system of the next test is Candida albicans. Nature of the test: Antifungal activity against Candida albicans after 24 hrs by two fold serial dilution method. Type of test: functional.
Details: not given
`Fc1ccccc1Cn1c(Cn2cnc3c(N4CCOCC4)ncnc32)nc2ccccc21`: the MIC80 came out at 256 µg/mL (≈ 577 µM).

On to `C=CCn1c(Cn2cnc3c(N4CCOCC4)ncnc32)nc2ccccc21`, for which the MIC80 was 512 µg/mL (≈ 1360 µM).

In turn, `OC(Cn1cncn1)(Cn1cncn1)c1ccc(F)cc1F` [FLUCONAZOLE] came in with an MIC80 of 64 µg/mL (≈ 209 µM).

The next test relates to Acinetobacter baumannii. In words: Antibacterial activity against Acinetobacter baumannii after 24 hrs by two fold serial dilution method. Type of test: functional.
Details: not given
Turning to `Fc1ccccc1Cn1c(Cn2cnc3c(N4CCOCC4)ncnc32)nc2ccccc21`, the lowest concentration to inhibit growth (MIC) was 128 µg/mL (≈ 289 µM).

The molecule `C=CCn1c(Cn2cnc3c(N4CCOCC4)ncnc32)nc2ccccc21` showed an MIC of 128 µg/mL (≈ 341 µM).

Take `CCn1cc(C(=O)O)c(=O)c2cc(F)c(N3CCNCC3)cc21` [NORFLOXACIN]: the minimal inhibitory concentration (MIC) stood at 32 µg/mL (≈ 100 µM).
